The values that follow come from patent publication US11446391B2, “Amphiphilic dye-coated inorganic nanoparticle clusters” (THE TRUSTEES OF THE UNIVERSITY OF PENNSYLVANIA, priority 2017, dated 2022).

For one data set, the system named is GBM. As to conditions: GBM patients, PDT; cited from earlier work.
Data set [1] is described as follows: Absorbance spectrum in water (solubility). It counts as physicochemical. On the procedure: FIGS. 22A-22D. (FIG. 22A) Illustration of Ce6-coated SPION nanoclusters (Ce6-SCs). Iron oxide nanoparticles are stabilized in aqueous media by the self-assembly of amphiphilic PS Chlorin e6 on the surface using a microemulsion. (FIG. 22B) Dynamic light scattering (DLS) of Ce6-SCs in water. […] (FIG. 22C) Particle size and T2 relaxation time was monitored for 6 days in water at 25° C. (FIG. 22D) Magnetic resonance (MR) relaxometry measurements of Ce6-SCs. Inset: T2-weighted image of Ce6-SCs at various concentrations in a microplate. (FIG. 22E) Absorbance spectra of Ce6-SCs (black) and free Ce6 (brown) in water. The inset images are vials containing solutions of Ce6-SCs and free Ce6 in water.
Relaxometry measurements indicated an average r2 value of 301±4 mM^−1 s^−1 and MR images of a phantom confirmed strong T2 contrast relative to water (FIG. 22D).

Data set [2] in a line: Vials of free Ce6 or Ce6 nanoclusters in water. It counts as physicochemical. Conditions: equal concentrations of Ce6. The method, then: FIG. 43 is a photograph of vials containing solution with free Ce6 or Ce6 nanoclusters in water (at equal concentrations of Ce6).
The size distribution of Ce6 nanoclusters was measured by dynamic light scattering (DLS) in water at 25° C. (FIG. 39). The amphiphilic Ce6 molecules solubilized the PCL, creating stable nanoclusters with an average hydrodynamic diameter of 58±4 nm and an average polydispersity index (PDI) of <0.2. Fluorescence detection takes place when Ce6 is excited at around 404 nm, which then emits a characteristic reference fluorescence peak at approximately 650 nm (FIG. 40).

The conditions of data set [3]: Ce6 at 667 nm, PpIX at 631 nm; in M-1cm-1 (unit assumed); cited from earlier work.

With `C=Cc1c(C)c2cc3nc(c(CC(=O)N[C@@H](CC(=O)O)C(=O)O)c4[nH]c(cc5nc(cc1[nH]2)C(C)=C5CC)c(C)c4C(=O)O)[C@@H](CCC(=O)O)[C@@H]3C` [talaporfin, mono-L-aspartyl chlorin e6], in the data set with GBM, the adverse events entry is “only mild adverse events” and the overall survival is listed as 24.8 months.
As to Chlorin e6 [Ce6], the “solubility in water judged from absorbance spectrum (peak at ~665 nm)” value in data set [1] was “poor solubility”. Moreover, the behaviour in water result in data set [2] is “aggregate and precipitate in water”. Moreover, in data set [3], the peak extinction coefficient is listed as 55,000.
